According to patent US20040141912A1, “Method for targeting chemical compounds to cells and pharmaceutical compositions used therein” (priority 2001, published 2004):
Entries after “also recorded” stand apart in the source; their conditions may differ.

Key:
Format in all cases: cell-based, human
[1] = tested on: Jurkat cells; experiment: FACS analysis of NST830 uptake by Jurkat cells induced to undergo apoptosis by anti-Fas antibody (PI co-staining); conditions: upper right quadrant
Description: FIG. 7 Jurkat cells were induced to undergo apoptosis by anti-Fas Ab treatment as described for FIG. 3 above. Subsequently, cells were incubated with 50 μM of NST830 for 5 minutes, co-stained with PI and subjected to FACS analysis. In order to inhibit PLS in apoptotic cells, two approaches were used:
(i). Ca^2+-deprivation: apoptotic cells were incubated for 30 min at room temperature in the presence of BAPTA (20 μM) and EGTA (1 mM), and then treated with NST830 and PI as above.
(ii). PLS inhibition by rottlerin: prior to treatment with NST830 and PI, apoptotic cells were incubated for 40 min in the presence of 0.5 μM of rottlerin, and then submitted to FACS analysis.
Cultured Jurkat cells were induced to undergo apoptosis by anti-Fas antibody (0.1 μg/ml) for 2.5 hours, as described in Example 1. Subsequently, both control and apoptotic cells were incubated with 50 μM of NST830 for 5 minutes, and uptake was measured by FACS. Prior to FACS analysis, cells were also co-stained with PI. Induction of apoptosis was associated with the emergence of a large, distinct population of 64% of cells in the early stages of the apoptotic process, selectively binding NST830 and occupying the right lower quadrant of the plot. No substantial change was observed under these conditions in the percentage of cells in late apoptosis, that are unselectively permeable to PI and NST830. […]

[2] = tested on: Jurkat cells; experiment: FACS analysis of DDC uptake by Jurkat cells induced to undergo apoptosis by anti-Fas antibody (PI co-staining)
[3] = tested on: activated platelets; experiment: FACS analysis of DDC uptake by control and activated platelets
Description: (§1) FIG. 6: Control and activated platelets were co-incubated with DDC (at a final concentration of 5 μM under three different conditions: no further treatment; Ca^2+-deprivation due to incubation with BAPTA and EGTA; and restoration of Ca^2+ following re-addition of Ca^2+ and calcium-ionophore A23187. Platelets were then subjected to FACS analysis.
(§2) The selective binding of DDC to activated platelets was determined using flow cytometric (FACS) analysis. Platelet rich plasma was obtained from healthy volunteers. 10^9 fresh platelets were centrifuged (5 minutes, 380×g), washed and re-suspended in Tyrode's buffer (137 mM NaCl; 2.8 mM KCl; 1 mM MgCl2, 12 mM NaHCO3; 0.4 mM Na2HPO4; 5.5 mM D-glucose and 10 mM Hepes pH 7.4; 0.35% BSA). Control platelets were kept on ice.
(§3) For activation, 200 μl of washed platelets were incubated with the calcium ionophore A23187 in the presence of 5 mM of CaCl2, at room temperature. Following incubation, platelets were centrifuged (2 min., 10^4 rpm) and re-suspended in 1 ml of Tyrode's buffer. Activated platelets were subsequently incubated with 5 μM of DDC for 5 minutes at room temperature, under three different conditions: (i). without any further treatment; (ii). under conditions of Ca^2+-deprivation, induced by 20 μM of BAPTA and 1 mM of EGTA (for 30 min. at 4° C.); (iii). upon restoration of Ca^2+, wherein platelet intracellular Ca^2+ levels were replenished by addition of 1 mM of CaCl2 and 2 μM of the calcium ionophore A23187. Non-activated platelets served as control. Platelets were subjected to flow cytometric (FACS) analysis using Becton-Dickinson cell sorter and CellQuest software. Excitation was at 360 nm and emission was measured at 530 nm.

[4] = as above; conditions: DDC 5 μM, 5 min
Description: as §1, §2, §3

## CN(C)c1cccc2c(S(=O)(=O)NC(CSSCC(NS(=O)(=O)c3cccc4c(N(C)C)cccc34)C(=O)O)C(=O)O)cccc12 (stereo not drawn) [DDC]
[1]; BAPTA + EGTA
  NST830-binding, PI-permeable late apoptotic cells upon Ca2+-deprivation: unaffected
[1]; rottlerin 0.5 μM
  NST830-binding, PI-permeable late apoptotic cells in the presence of rottlerin: no change was detected
[2]; anti-Fas 3 h + Z-VAD-fmk 50 μM, DDC 50 μM 5 min
  DDC binding by cells in early apoptosis with pan-caspase inhibitor: abolished this DDC binding
[2]; anti-Fas 3 h without Z-VAD-fmk, DDC 50 μM 5 min
  DDC binding by cells in early apoptosis (peak B): marked DDC binding
[2]; anti-Fas + Z-VAD-fmk 50 μM
  DDC binding to cells in the late stages of apoptosis (peak C) with pan-caspase inhibitor: no significant alterations
[3]; BAPTA 20 μM + EGTA 1 mM, 30 min, 4° C.
  DDC uptake (fluorescence intensity), activated platelets under Ca2+-deprivation: markedly reduced DDC uptake; also recorded: uptake of DDC was inhibited
[3]; CaCl2 1 mM + A23187 2 μM after deprivation
  DDC uptake (fluorescence intensity), activated platelets upon restoration of Ca2+: completely restored; also recorded: fluorescence returned to the high values
[3]; activated with A23187 + 5 mM CaCl2, DDC 5 μM, 5 min
  DDC uptake (fluorescence intensity), activated platelets: significant shift to higher fluorescence values; also recorded: marked enhancement of fluorescence as compared to controls; also recorded: marked shift to higher fluorescence levels; also recorded: marked shift to higher fluorescence intensity
[4]
  DDC uptake (fluorescence intensity), control non-activated platelets: low levels of fluorescence intensity; also recorded: only minimal uptake of DDC
